{"source": "ChEMBL document CHEMBL6096703", "about": "(J Med Chem, 2025)", "key": {"MDA-MB-436 [1]": {"test_system": "MDA-MB-436", "test": "Induction of cell cycle arrest in human MDA-MB-436 cells assessed as accumulation of cells at S phase at 100 nM incubated for 3 days by PI staining based flow cytometric analysis (Rvb =18.94%)", "type": "functional", "conditions": "time 3 day"}, "[2]": {"test": "Cmax in rat at 2.5 mg/kg, po measured upto 96 hrs by LC-MS/MS analysis", "type": "ADME, organism-based", "conditions": "in vivo"}, "MDA-MB-436 [3]": {"test_system": "MDA-MB-436", "test": "Induction of cell cycle arrest in human MDA-MB-436 cells assessed as accumulation of cells at G0/G1 phase at 10 nM incubated for 3 days by PI staining based flow cytometric analysis (Rvb =56.18%)", "type": "functional", "conditions": "time 3 day"}, "[4]": {"test": "Sub-acute toxicity in Kunming mouse assessed as change ALB2 level at 100 to 300 mg/kg administered via gavage for 14 days", "type": "organism-based", "conditions": "in vivo, po, 336 h, dose 100-300 mg/kg, time 14 day"}, "[5]": {"test": "Half life in male Balb/c mouse at 1 mg/kg, iv measured upto 96 hrs by LC-MS/MS analysis", "type": "ADME, organism-based", "conditions": "in vivo, iv, 1 mg/kg, 96 h"}, "DLD-1": {"test_system": "DLD-1", "test": "Inhibition of colony formation in wild type human DLD-1 cells assessed as reduction in survival rate at 2.5 to 20 uM incubated for 10 days by crystal violet staining based assay", "type": "functional, cell-based", "conditions": "dose 2.5-20 µM, time 10.0 day"}, "[6]": {"test": "Tmax in male Balb/c mouse at 1 mg/kg, po measured upto 96 hrs by LC-MS/MS analysis", "type": "ADME, organism-based", "conditions": "in vivo"}, "[7]": {"test": "AUC(0 to t) in male Balb/c mouse at 1 mg/kg, po measured upto 96 hrs by LC-MS/MS analysis", "type": "ADME, organism-based", "conditions": "in vivo, po, 1 mg/kg, 96 h"}, "MDA-MB-436 [8]": {"test_system": "MDA-MB-436", "test": "Antitumor activity against human MDA-MB-436 cells xenografted in female NOD/SCID mouse assessed as inhibition of tumor growth administered orally once every other day for 28 days", "type": "functional, cell-based", "conditions": "dose 0.3-3 mg/kg, route po, time 28.0 day"}, "MDA-MB-436 [9]": {"test_system": "MDA-MB-436", "test": "Induction of DNA damage in human MDA-MB-436 cells assessed as increase in tail intensity at 100 to 1000 nM incubated for 3 days by PI staining based fluorescence microscopic analysis", "type": "functional, cell-based", "conditions": "dose 100-1000 nM, time 3.0 day"}, "[10]": {"test": "Clearance in male Balb/c mouse at 1 mg/kg, po measured upto 96 hrs by LC-MS/MS analysis", "type": "ADME, organism-based", "conditions": "in vivo, po, 1 mg/kg, 96 h"}, "[11]": {"target": "T1, Poly [ADP-ribose] polymerase 1 (Homo sapiens, UniProt P09874)", "T1 sequence (P09874 whole entry)": "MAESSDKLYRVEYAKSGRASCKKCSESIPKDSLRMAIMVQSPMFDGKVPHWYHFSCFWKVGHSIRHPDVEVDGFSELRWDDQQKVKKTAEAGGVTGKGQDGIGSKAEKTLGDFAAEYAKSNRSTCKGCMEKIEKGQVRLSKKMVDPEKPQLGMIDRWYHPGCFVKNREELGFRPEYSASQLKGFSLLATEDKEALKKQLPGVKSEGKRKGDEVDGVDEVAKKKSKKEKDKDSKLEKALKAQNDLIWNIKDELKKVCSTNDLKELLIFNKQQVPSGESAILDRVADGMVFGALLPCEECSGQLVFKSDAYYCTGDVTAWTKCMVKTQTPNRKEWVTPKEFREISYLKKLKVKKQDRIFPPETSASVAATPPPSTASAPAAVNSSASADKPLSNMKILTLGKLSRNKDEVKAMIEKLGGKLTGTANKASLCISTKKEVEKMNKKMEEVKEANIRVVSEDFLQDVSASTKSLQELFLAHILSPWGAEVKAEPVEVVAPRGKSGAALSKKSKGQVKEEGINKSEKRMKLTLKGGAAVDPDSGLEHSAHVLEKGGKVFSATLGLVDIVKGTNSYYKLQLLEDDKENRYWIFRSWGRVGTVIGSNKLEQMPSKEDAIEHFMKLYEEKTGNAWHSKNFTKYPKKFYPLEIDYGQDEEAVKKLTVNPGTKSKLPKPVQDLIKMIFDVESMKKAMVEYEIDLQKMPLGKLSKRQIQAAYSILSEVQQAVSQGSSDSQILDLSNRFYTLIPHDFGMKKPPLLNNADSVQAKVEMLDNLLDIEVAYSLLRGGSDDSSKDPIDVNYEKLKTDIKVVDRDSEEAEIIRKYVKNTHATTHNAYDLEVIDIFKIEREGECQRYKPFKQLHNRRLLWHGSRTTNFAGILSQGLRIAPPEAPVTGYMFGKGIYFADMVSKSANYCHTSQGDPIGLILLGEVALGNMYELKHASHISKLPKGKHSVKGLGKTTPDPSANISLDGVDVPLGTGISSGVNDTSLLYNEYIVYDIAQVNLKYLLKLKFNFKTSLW", "test": "Inhibition of PARP1 in PARP2 knockout human A549 cells preincubated with compound for 1 hr followed by H2O2 addition and measured after 5 mins by selective targeting PARylation inhibition assay", "type": "cell-based"}, "MDA-MB-436 [12]": {"test_system": "MDA-MB-436", "test": "Induction of cell cycle arrest in human MDA-MB-436 cells assessed as accumulation of cells at S phase at 1 nM incubated for 3 days by PI staining based flow cytometric analysis (Rvb =18.94%)", "type": "functional", "conditions": "time 3 day"}, "[13]": {"test": "Apparent volume of distribution in male Balb/c mouse at 1 mg/kg, po measured upto 96 hrs by LC-MS/MS analysis", "type": "ADME, organism-based", "conditions": "in vivo"}, "MDA-MB-436 [14]": {"test_system": "MDA-MB-436", "test": "Antitumor activity against luciferase tagged human MDA-MB-436 cells xenografted in female NOD-SCID mouse assessed as tumor regression by measuring bioluminescence signal administered orally once a day for 34 days by bioluminescence imaging analysis", "type": "functional, cell-based", "conditions": "dose 3-10 mg/kg, route po, time 34.0 day"}, "MDA-MB-436 [15]": {"test_system": "MDA-MB-436", "test": "Induction of DNA damage in human MDA-MB-436 cells assessed as increase in gammaH2AX foci at 0.1 to 1000 nM incubated for 3 days by DAPI staining based immunofluorescence analysis", "type": "functional, cell-based", "conditions": "dose 0.1-1000 nM, time 3.0 day"}, "MDA-MB-436 [16]": {"test_system": "MDA-MB-436", "test": "Induction of apoptosis in human MDA-MB-436 cells assessed as early apoptotic cells at 10 nM incubated for 3 days by Annexin V/ PI staining based flow cytometry (reference value: 12.8%)", "type": "functional", "conditions": "time 3 day"}, "[17]": {"target": "T1, Poly [ADP-ribose] polymerase 1", "test": "Inhibition of PARP1 in wild type human A549 cells preincubated with compound for 1 hr followed by H2O2 addition and measured after 5 mins by PARylation inhibition assay", "type": "cell-based"}, "[18]": {"test": "Apparent volume of distribution in male Balb/c mouse at 1 mg/kg, iv measured upto 96 hrs by LC-MS/MS analysis", "type": "ADME, organism-based", "conditions": "in vivo, iv, 1 mg/kg, 96 h"}, "[19]": {"test": "Half life in rat at 2.5 mg/kg, po measured upto 96 hrs by LC-MS/MS analysis", "type": "ADME, organism-based", "conditions": "in vivo"}, "MDA-MB-436 [20]": {"test_system": "MDA-MB-436", "test": "Antitumor activity against luciferase tagged human MDA-MB-436 cells xenografted in female NOD-SCID mouse assessed as median survival time at 10 mg/kg, po administered once a day for 34 days", "type": "functional", "conditions": "time 34 day"}, "[21]": {"test": "Toxicity in female NOD/SCID mouse xenografted with human MDA-MB-436 cells assessed as change in body weight at 0.3 to 3 mg/kg, po administered once every other day for 28 days and measured every 2 days", "type": "organism-based", "conditions": "in vivo, 672 h, dose 0.3-3 mg/kg, time 28 day"}, "MDA-MB-436 [22]": {"test_system": "MDA-MB-436", "test": "Induction of apoptosis in human MDA-MB-436 cells assessed as early apoptotic cells at 100 nM incubated for 3 days by Annexin V/ PI staining based flow cytometry (reference value: 12.8%)", "type": "functional", "conditions": "time 3 day"}, "[23]": {"test": "Sub-acute toxicity in Kunming mouse assessed as change LDH2 level at 30 to 100 mg/kg administered via gavage once every other day for 14 days", "type": "organism-based", "conditions": "in vivo, po, 336 h, dose 30-100 mg/kg, time 14 day"}, "[24]": {"test": "Sub-acute toxicity in Kunming mouse assessed as change CREA2 level at 100 to 300 mg/kg administered via gavage for 14 days", "type": "organism-based", "conditions": "in vivo, po, 336 h, dose 100-300 mg/kg, time 14 day"}, "[25]": {"test": "Acute toxicity in Kunming mouse assessed as change in cellular morphology of spleen at 100 mg/kg administered once every other day via gavage for 14 days by H and E staining based analysis", "type": "organism-based", "conditions": "in vivo, po, 336 h, time 14 day"}, "MDA-MB-436 [26]": {"test_system": "MDA-MB-436", "test": "Antitumor activity against luciferase tagged human MDA-MB-436 cells xenografted in female NOD-SCID mouse assessed as median survival time at 3 mg/kg, po administered once a day for 34 days", "type": "functional", "conditions": "time 34 day"}, "[27]": {"test": "Acute toxicity in Kunming mouse assessed as change in cellular morphology of heart at 100 mg/kg administered once every other day via gavage for 14 days by H and E staining based analysis", "type": "organism-based", "conditions": "in vivo, po, 336 h, time 14 day"}, "MDA-MB-436 [28]": {"test_system": "MDA-MB-436", "test": "Inhibition of colony formation in human MDA-MB-436 cells assessed as reduction in survival rate incubated for 10 days by crystal violet staining based assay", "type": "functional, cell-based", "conditions": "dose 0.1-100 nM, time 10.0 day"}, "[29]": {"test": "Acute toxicity in Kunming mouse assessed as change in cellular morphology of lung at 100 mg/kg administered once every other day via gavage for 14 days by H and E staining based analysis", "type": "organism-based", "conditions": "in vivo, po, 336 h, time 14 day"}, "[30]": {"test": "Acute toxicity in Kunming mouse assessed as change in cellular morphology of liver at 100 mg/kg administered once every other day via gavage for 14 days by H and E staining based analysis", "type": "organism-based", "conditions": "in vivo, po, 336 h, time 14 day"}, "[31]": {"test": "Sub-acute toxicity in Kunming mouse assessed as change ALTL level at 100 to 300 mg/kg administered via gavage for 14 days", "type": "organism-based", "conditions": "in vivo, po, 336 h, dose 100-300 mg/kg, time 14 day"}, "[32]": {"test": "Sub-acute toxicity in Kunming mouse assessed as change CK level at 100 to 300 mg/kg administered via gavage for 14 days", "type": "organism-based", "conditions": "in vivo, po, 336 h, dose 100-300 mg/kg, time 14 day"}, "MDA-MB-436 [33]": {"test_system": "MDA-MB-436", "test": "Induction of cell cycle arrest in human MDA-MB-436 cells assessed as accumulation of cells at G2/M phase at 10 nM incubated for 3 days by PI staining based flow cytometric analysis (Rvb =24.88%)", "type": "functional", "conditions": "time 3 day"}}, "note": "Calls of active or inactive are those of the source. The rule behind the calls is not given here."}
{"smiles": "CCc1cc2ncc(CN3CC=C(c4ccc(C#N)cn4)CC3)cc2[nH]c1=O", "values": [{"measurement": "Activity", "setting": "MDA-MB-436 [1]", "result": 9.37, "unit": "%"}, {"measurement": "Cmax", "setting": "[2]", "result": 7540, "unit": "ng/mL"}, {"measurement": "Activity", "setting": "MDA-MB-436 [3]", "result": 60.25, "unit": "%"}, {"measurement": "Activity", "setting": "[4]", "result": "Non-toxic"}, {"measurement": "t1/2", "setting": "[5]", "result": 107.53, "unit": "h"}, {"measurement": "inhibition", "setting": "DLD-1", "result": "inactive"}, {"measurement": "Tmax", "setting": "[6]", "result": 8.33, "unit": "h"}, {"measurement": "AUCt", "setting": "[7]", "result": 787.38372, "unit": "µg·h/mL"}, {"measurement": "Activity", "setting": "MDA-MB-436 [8]", "result": "Dose-dependent-effect"}, {"measurement": "Activity", "setting": "MDA-MB-436 [9]", "result": "Active"}, {"measurement": "CL", "setting": "[10]", "result": 0.17, "unit": "mL/min/kg"}, {"measurement": "IC50", "setting": "[11]", "result": 0.9, "unit": "nM"}, {"measurement": "Activity", "setting": "MDA-MB-436 [12]", "result": 14.99, "unit": "%"}, {"measurement": "Vz", "setting": "[13]", "result": 0.13, "unit": "L/kg"}, {"measurement": "Activity", "setting": "MDA-MB-436 [14]", "result": "Dose-dependent-effect"}, {"measurement": "Activity", "setting": "MDA-MB-436 [15]", "result": "Active"}, {"measurement": "Activity", "setting": "MDA-MB-436 [16]", "result": 20.3, "unit": "%"}, {"measurement": "IC50", "setting": "[17]", "result": 4.1, "unit": "nM"}, {"measurement": "Vz", "setting": "[18]", "result": 0.16, "unit": "L/kg"}, {"measurement": "half-life", "setting": "[19]", "result": 47.4, "unit": "h"}, {"measurement": "Survival", "setting": "MDA-MB-436 [20]", "result": 70, "unit": "days"}, {"measurement": "Activity", "setting": "[21]", "result": "Non-toxic"}, {"measurement": "Activity", "setting": "MDA-MB-436 [22]", "result": 21.9, "unit": "%"}, {"measurement": "Activity", "setting": "[23]", "result": "Non-toxic"}, {"measurement": "Activity", "setting": "[24]", "result": "Non-toxic"}, {"measurement": "Activity", "setting": "[25]", "result": "Non-toxic"}, {"measurement": "Survival", "setting": "MDA-MB-436 [26]", "result": ">60", "unit": "days"}, {"measurement": "Activity", "setting": "[27]", "result": "Non-toxic"}, {"measurement": "inhibition", "setting": "MDA-MB-436 [28]", "result": "Dose-dependent-effect"}, {"measurement": "Activity", "setting": "[29]", "result": "Non-toxic"}, {"measurement": "Activity", "setting": "[30]", "result": "Non-toxic"}, {"measurement": "Activity", "setting": "[31]", "result": "Non-toxic"}, {"measurement": "Activity", "setting": "[32]", "result": "Non-toxic"}, {"measurement": "Activity", "setting": "MDA-MB-436 [33]", "result": 29.58, "unit": "%"}]}
